Laboratory results from PubChem BioAssay AID248 (DTP/NCI, 2004).
“And” between values parts separate entries of the source, which are not always exact repeats. Identical values can stand only once. Inconclusive results and toxic doses are left out. Cut-off read from the data, not from the text of the source: active = T/C of 150% or more; inactive = T/C below 125%.

System: L1210 leukemia ip in BDF1 mice, survival T/C
Experiment: NCI In Vivo Anticancer Drug Screen. Data for tumor model L1210 Leukemia (intraperitoneal) in B6D2F1 (BDF1) mice
Settings: endpoint: mean survival time, higher = longer survival
Procedure, shortened: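 Antitumor effect is assessed in tumor-bearing animals. Survival in the compound arm is compared with a vehicle-dosed control arm and expressed as their quotient.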

[1] = dose: 25.0 mg/kg/injection, schedule: Q01DX009 (ip), vehicle: other
[2] = dose: 25.0 mg/kg/injection, schedule: Q04DX003 (ip), vehicle: saline
[3] = dose: 100.0 mg/kg/injection, schedule: Q04DX002 (ip), vehicle: saline
[4] = dose: 100.0 mg/kg/injection, schedule: Q04DX003 (ip), vehicle: Klucel (hydroxypropylcellulose) (HPC)
[5] = dose: 200.0 mg/kg/injection, schedule: Q04DX003 (ip), vehicle: Klucel (hydroxypropylcellulose) (HPC)
[6] = dose: 400.0 mg/kg/injection, schedule: Q04DX003 (ip), vehicle: Klucel (hydroxypropylcellulose) (HPC)
[7] = dose: 100.0 mg/kg/injection, schedule: Q01DX009 (ip), vehicle: Klucel (hydroxypropylcellulose) (HPC)
[8] = dose: 200.0 mg/kg/injection, schedule: Q01DX009 (ip), vehicle: Klucel (hydroxypropylcellulose) (HPC)
[9] = dose: 400.0 mg/kg/injection, schedule: Q01DX009 (ip), vehicle: Klucel (hydroxypropylcellulose) (HPC)
[10] = dose: 50.0 mg/kg/injection, schedule: Q01DX001 (ip), vehicle: saline
[11] = dose: 100.0 mg/kg/injection, schedule: Q01DX001 (ip), vehicle: saline
[12] = dose: 200.0 mg/kg/injection, schedule: Q01DX001 (ip), vehicle: saline
[13] = dose: 400.0 mg/kg/injection, schedule: Q01DX001 (ip), vehicle: saline

Measured: T/C

Cc1ccc(C#N)s1
inactive: dose: 3.12 mg/kg/injection, schedule: Q01DX009 (ip), vehicle: other 98 % of control | dose: 6.25 mg/kg/injection, schedule: Q01DX009 (ip), vehicle: other 104 % of control | dose: 12.5 mg/kg/injection, schedule: Q01DX009 (ip), vehicle: other 98 % of control | dose: 16.0 mg/kg/injection, schedule: Q04DX003 (ip), vehicle: saline 102 % of control | [1] 106 % of control | [2] 117 % of control

CCCCCCCCCCN1CCC(N2CCCCC2)CC1
inactive: dose: 25.0 mg/kg/injection, schedule: Q04DX002 (ip), vehicle: saline 102 % of control | dose: 50.0 mg/kg/injection, schedule: Q04DX002 (ip), vehicle: saline 102 % of control | [3] 98 % of control and 91 % of control

COc1ccc(Oc2ccccc2)cc1-c1ccccc1
inactive: dose: 100.0 mg/kg/injection, schedule: Q01DX001 (ip), vehicle: carboxymethylcellulose (CMC) 93 % of control | dose: 200.0 mg/kg/injection, schedule: Q01DX001 (ip), vehicle: carboxymethylcellulose (CMC) 102 % of control | dose: 400.0 mg/kg/injection, schedule: Q01DX001 (ip), vehicle: carboxymethylcellulose (CMC) 96 % of control

Cc1cc2c3ccccc3ncn2n1
inactive: [4] 101 % of control | [5] 103 % of control | [6] 109 % of control

c1ccc(NC2=NCCO2)cc1
inactive: dose: 25.0 mg/kg/injection, schedule: Q04DX002 (ip), vehicle: saline with Tween-80 107 % of control | dose: 50.0 mg/kg/injection, schedule: Q04DX002 (ip), vehicle: saline with Tween-80 90 % of control | dose: 100.0 mg/kg/injection, schedule: Q04DX002 (ip), vehicle: saline with Tween-80 96 % of control

O=C1CCCCC1CO (stereo not given)
inactive: [7] 96 % of control | dose: 100.0 mg/kg/injection, schedule: Q04DX002 (ip), vehicle: Klucel (hydroxypropylcellulose) (HPC) 96 % of control | [8] 100 % of control | dose: 200.0 mg/kg/injection, schedule: Q04DX002 (ip), vehicle: Klucel (hydroxypropylcellulose) (HPC) 100 % of control | [9] 89 % of control | dose: 400.0 mg/kg/injection, schedule: Q04DX002 (ip), vehicle: Klucel (hydroxypropylcellulose) (HPC) 86 % of control

COc1ccc2c(c1C)CCC13CC(C)C(CC21)OC3=O (stereo not given)
inactive: dose: 100.0 mg/kg/injection, schedule: Q01DX001 (ip), vehicle: Klucel (hydroxypropylcellulose) (HPC) 102 % of control | dose: 200.0 mg/kg/injection, schedule: Q01DX001 (ip), vehicle: Klucel (hydroxypropylcellulose) (HPC) 101 % of control | dose: 400.0 mg/kg/injection, schedule: Q01DX001 (ip), vehicle: Klucel (hydroxypropylcellulose) (HPC) 109 % of control

CC(C)([CH2][Sn]([Cl])([Cl])[CH2]C(C)(C)c1ccccc1)c1ccccc1
inactive: dose: 0.1 mg/kg/injection, schedule: Q04DX002 (ip), vehicle: saline with Tween-80 95 % of control | dose: 0.2 mg/kg/injection, schedule: Q04DX002 (ip), vehicle: saline with Tween-80 95 % of control | dose: 0.4 mg/kg/injection, schedule: Q04DX002 (ip), vehicle: saline with Tween-80 95 % of control | dose: 0.8 mg/kg/injection, schedule: Q04DX002 (ip), vehicle: saline with Tween-80 92 % of control | dose: 3.13 mg/kg/injection, schedule: Q04DX002 (ip), vehicle: saline with Tween-80 98 % of control

C/C=N/N(C)C=O
inactive: dose: 100.0 mg/kg/injection, schedule: Q04DX003 (ip), vehicle: saline 104 % of control | dose: 200.0 mg/kg/injection, schedule: Q04DX003 (ip), vehicle: saline 119 % of control

CC1CCCC(C)N1NC(=O)NCCCl (stereo not given)
inactive: [7] 100 % of control | [4] 100 % of control | [8] 102 % of control | [5] 100 % of control | [9] 102 % of control | [6] 97 % of control

CN(Cc1ccccc1)C(=O)Nc1ccc(Cl)c(Cl)c1
inactive: [7] 97 % of control | [8] 110 % of control | [9] 101 % of control

CC1CCCC(C)(C)C1NCc1cc(Br)cc(Br)c1O (stereo not given)
inactive: [7] 107 % of control | [9] 88 % of control

CCCCO.[Sn]
inactive: dose: 50.0 mg/kg/injection, schedule: Q01DX009 (ip), vehicle: saline 99 % of control and 109 % of control | dose: 100.0 mg/kg/injection, schedule: Q01DX009 (ip), vehicle: saline 96 % of control and 109 % of control | dose: 200.0 mg/kg/injection, schedule: Q01DX009 (ip), vehicle: saline 99 % of control and 106 % of control

CCCCN(CCCC)CCCCO
inactive: dose: 50.0 mg/kg/injection, schedule: Q01DX009 (ip), vehicle: saline with Tween-80 116 % of control | dose: 100.0 mg/kg/injection, schedule: Q01DX009 (ip), vehicle: saline with Tween-80 101 % of control | dose: 100.0 mg/kg/injection, schedule: Q04DX003 (ip), vehicle: saline with Tween-80 102 % of control | dose: 200.0 mg/kg/injection, schedule: Q01DX009 (ip), vehicle: saline with Tween-80 101 % of control | dose: 200.0 mg/kg/injection, schedule: Q04DX003 (ip), vehicle: saline with Tween-80 96 % of control

CCOC(=O)C1CN(c2ccccc2)C(=O)C1=O (stereo not given)
inactive: [10] 104 % of control | [11] 98 % of control | [12] 96 % of control | [13] 98 % of control

CC1(C)CS(=O)(=O)CC1=O
inactive: dose: 3.0 mg/kg/injection, schedule: Q01DX009 (ip), vehicle: other 103 % of control | dose: 6.0 mg/kg/injection, schedule: Q01DX009 (ip), vehicle: other 102 % of control | dose: 12.0 mg/kg/injection, schedule: Q01DX009 (ip), vehicle: other 94 % of control | dose: 12.0 mg/kg/injection, schedule: Q04DX003 (ip), vehicle: saline 98 % of control | [1] 100 % of control | [2] 101 % of control | dose: 50.0 mg/kg/injection, schedule: Q01DX009 (ip), vehicle: other 96 % of control | dose: 50.0 mg/kg/injection, schedule: Q04DX003 (ip), vehicle: saline 106 % of control

O=C(COc1cccc(C(=O)O)c1)Nc1ccccc1
inactive: [4] 95 % of control | [5] 93 % of control | [6] 92 % of control

CCOC(=O)/C(O)=C\c1nc(OCC)nc(OCC)c1[N+](=O)[O-]
inactive: dose: 93.8 mg/kg/injection, schedule: Q04DX002 (ip), vehicle: Klucel (hydroxypropylcellulose) (HPC) 95 % of control | dose: 187.5 mg/kg/injection, schedule: Q04DX002 (ip), vehicle: Klucel (hydroxypropylcellulose) (HPC) 95 % of control | dose: 375.0 mg/kg/injection, schedule: Q04DX002 (ip), vehicle: Klucel (hydroxypropylcellulose) (HPC) 100 % of control

CC1(C)c2ccccc2N(CCCN)c2ccccc21
inactive: dose: 3.25 mg/kg/injection, schedule: Q01DX001 (ip), vehicle: saline 93 % of control | dose: 6.5 mg/kg/injection, schedule: Q01DX001 (ip), vehicle: saline 93 % of control | dose: 13.0 mg/kg/injection, schedule: Q01DX001 (ip), vehicle: saline 96 % of control | [10] 95 % of control | [11] 106 % of control

CC(C)(C)/C([O-])=N/[N+](C)(C)C
inactive: [11] 108 % of control | [12] 97 % of control | [13] 101 % of control

CCS(=O)(=O)C1CCC1OC(C)(C)C (stereo not given)
inactive: [11] 108 % of control | [12] 108 % of control | [13] 102 % of control

CN(C)C(=O)CCC(=O)O
inactive: [3] 103 % of control | dose: 200.0 mg/kg/injection, schedule: Q04DX002 (ip), vehicle: saline 97 % of control | dose: 400.0 mg/kg/injection, schedule: Q04DX002 (ip), vehicle: saline 97 % of control
